Source: patent US10479780B2, “Aminopyrazole derivatives” (Chugai Seiyaku Kabushiki Kaisha, priority 2015, dated 2019)
Like-named read-outs stand apart in the source and are kept apart here.

Experiments:
Assay type in all cases: biochemical
human Lck enzyme = target: T1, human Lck enzyme (Homo sapiens, UniProt P06239); assay: Lck enzyme inhibitory activity (time-resolved fluorometry, biotinylated peptide phosphorylation); conditions: read-out: LCK_IC50
T1 construct: purchased Carna Biosciences, Inc. 08-170
Procedure, shortened: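 Readout pairs a europium cryptate-labelled anti-phosphotyrosine antibody with XL665-streptavidin, measured by time-resolved fluorescence. IC50 derived from percent inhibition against untreated controls.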

human Yes1 enzyme = target: T2, human Yes1 enzyme (Homo sapiens, UniProt P07947); assay: Yes1 enzyme inhibitory activity (time-resolved fluorometry, biotinylated peptide phosphorylation); conditions: read-out: YES_IC50
T2 construct: made in house
Procedure, shortened: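 Inhibition was expressed against a compound-free control to give IC50, using TR-FRET read-out (Eu-cryptate anti-pTyr antibody, streptavidin-XL665).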

human Src enzyme = target: T3, human Src enzyme (Homo sapiens, UniProt P12931); assay: Src enzyme inhibitory activity (time-resolved fluorometry, biotinylated peptide phosphorylation); conditions: read-out: SRC_IC50
T3 construct: purchased Carna Biosciences, Inc. 08-173
Procedure, shortened: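 Compounds were tested for blocking tyrosine phosphorylation of a biotinylated peptide substrate by recombinant human Src. Phosphorylated product was quantified by time-resolved fluorometry using europium cryptate and XL665 conjugates, and IC50 was calculated against the compound-free control.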

[1] = biotinylated peptide phosphorylation

T2 sequence (P07947 whole entry): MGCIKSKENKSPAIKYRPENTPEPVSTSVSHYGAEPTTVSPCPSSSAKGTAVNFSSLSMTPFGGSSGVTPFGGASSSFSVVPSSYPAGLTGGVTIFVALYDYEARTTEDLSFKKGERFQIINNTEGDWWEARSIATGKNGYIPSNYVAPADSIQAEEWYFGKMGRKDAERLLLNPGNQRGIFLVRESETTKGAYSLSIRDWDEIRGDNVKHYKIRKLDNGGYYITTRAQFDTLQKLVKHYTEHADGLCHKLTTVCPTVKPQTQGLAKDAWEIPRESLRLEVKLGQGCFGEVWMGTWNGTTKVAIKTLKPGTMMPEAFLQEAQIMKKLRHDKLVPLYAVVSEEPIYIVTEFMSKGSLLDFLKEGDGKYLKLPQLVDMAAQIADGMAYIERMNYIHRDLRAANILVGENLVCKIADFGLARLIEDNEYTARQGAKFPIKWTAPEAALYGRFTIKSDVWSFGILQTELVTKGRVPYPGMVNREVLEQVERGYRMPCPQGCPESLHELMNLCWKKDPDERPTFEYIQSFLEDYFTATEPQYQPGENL
T1 sequence (P06239 whole entry): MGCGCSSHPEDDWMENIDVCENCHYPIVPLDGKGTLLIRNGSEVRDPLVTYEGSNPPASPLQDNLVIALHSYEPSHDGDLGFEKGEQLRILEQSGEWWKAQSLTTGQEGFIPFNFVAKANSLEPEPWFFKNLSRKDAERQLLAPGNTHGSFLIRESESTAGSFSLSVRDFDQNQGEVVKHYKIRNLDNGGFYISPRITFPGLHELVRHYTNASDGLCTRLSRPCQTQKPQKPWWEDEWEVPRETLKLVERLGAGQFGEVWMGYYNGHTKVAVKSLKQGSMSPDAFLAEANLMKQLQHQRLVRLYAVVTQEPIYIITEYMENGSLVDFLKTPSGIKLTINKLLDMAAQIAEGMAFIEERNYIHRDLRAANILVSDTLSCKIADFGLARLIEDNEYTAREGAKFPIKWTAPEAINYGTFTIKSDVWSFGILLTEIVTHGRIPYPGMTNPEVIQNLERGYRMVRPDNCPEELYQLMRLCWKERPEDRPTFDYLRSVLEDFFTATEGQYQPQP
T3 sequence (P12931 whole entry): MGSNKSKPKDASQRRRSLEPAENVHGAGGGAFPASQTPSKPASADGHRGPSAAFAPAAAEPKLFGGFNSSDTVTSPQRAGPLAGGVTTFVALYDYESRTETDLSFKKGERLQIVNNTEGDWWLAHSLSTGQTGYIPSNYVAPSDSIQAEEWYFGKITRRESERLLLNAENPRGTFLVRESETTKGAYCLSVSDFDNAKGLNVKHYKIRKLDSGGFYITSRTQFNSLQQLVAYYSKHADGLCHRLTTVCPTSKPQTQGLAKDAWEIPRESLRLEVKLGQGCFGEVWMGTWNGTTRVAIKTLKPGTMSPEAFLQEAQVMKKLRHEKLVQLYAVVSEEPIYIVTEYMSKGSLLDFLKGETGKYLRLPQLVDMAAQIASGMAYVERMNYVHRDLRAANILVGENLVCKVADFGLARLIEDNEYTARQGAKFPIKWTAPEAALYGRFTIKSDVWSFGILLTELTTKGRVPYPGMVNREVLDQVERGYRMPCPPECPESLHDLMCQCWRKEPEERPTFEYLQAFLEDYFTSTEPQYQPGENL

| Structure (SMILES) | IC50 (human Lck enzyme; [1]) | IC50 (human Yes1 enzyme; [1]) | IC50 (human Src enzyme; [1]) | IC50 (human Lck enzyme) | IC50 (human Yes1 enzyme) | IC50 (human Src enzyme) |
| --- | --- | --- | --- | --- | --- | --- |
| Cc1cc(Oc2c(F)cccc2F)ncc1-n1ncc(C(=O)c2cc3cc(OCC(F)F)c(NS(=O)(=O)C4CC4)cc3[nH]2)c1N [Example 4-24-030, N-[2-[5-amino-1-[6-(2,6-difluorophenoxy)-4-methylpyridin-3-yl]pyrazole-4-carbonyl]-5-(2,2-difluoroethoxy)-1H-indol-6-yl]cyclopropanesulfonamide] | 23 nM | 1.7 nM | 120 nM |  |  |  |
| Cc1cc(Oc2ccccc2F)ccc1-n1ncc(C(=O)c2cc3cc(F)c(N4CCC(N5CCOCC5)CC4)cc3[nH]2)c1N [Example 5-1-128, [5-amino-1-[4-(2-fluorophenoxy)-2-methylphenyl]pyrazol-4-yl]-[5-fluoro-6-(4-morpholin-4-ylpiperidin-1-yl)-1H-indol-2-yl] methanone] |  |  |  | 3.8 nM | 0.75 nM | 23 nM |
| Cc1cc2[nH]c(C(=O)c3cnn(-c4c(C)cc(Oc5ccccc5F)cc4F)c3N)cc2cc1NS(C)(=O)=O [Example 4-2-051, N-[2-[5-amino-1-[2-fluoro-4-(2-fluorophenoxy)-6-methylphenyl]pyrazole-4-carbonyl]-6-methyl-1H-indol-5-yl]methanesulfonamide] | 1.2 nM | 0.59 nM | 3.8 nM |  |  |  |
| Cc1cc(Oc2ccccc2F)ncc1-n1ncc(C(=O)c2cc3cc(F)c(NS(=O)(=O)CC(=O)N4CCOCC4)cc3[nH]2)c1N [Example 4-10-006, N-[2-[5-amino-1-[6-(2-fluorophenoxy)-4-methylpyridin-3-yl]pyrazole-4-carbonyl]-5-fluoro-1H-indol-6-yl]-2-morpholin-4-yl-2-oxoethanesulfonamide] | 19 nM | 1 nM | 37 nM |  |  |  |
| Cc1cc(Oc2ccccc2F)ccc1-n1ncc(C(=O)c2cc3cc(NS(C)(=O)=O)c(F)cc3[nH]2)c1N [Example 4-2-097, N-[2-[5-amino-1-[4-(2-fluorophenoxy)-2-methylphenyl]pyrazole-4-carbonyl]-6-fluoro-1H-indol-5-yl]methanesulfonamide] | 1.8 nM | 0.28 nM | 8.1 nM |  |  |  |
| Cc1cc(Oc2c(F)cccc2F)ncc1-n1ncc(C(=O)c2cc3cc(OC(F)F)c(N4CCOCC4)cc3[nH]2)c1N [Example 4-25-023, [5-amino-1-[6-(2,6-difluorophenoxy)-4-methylpyridin-3-yl]pyrazol-4-yl]-[5-(difluoromethoxy)-6-morpholin-4-yl-1H-indol-2-yl]methanone] | 16 nM | 6.3 nM | 86 nM |  |  |  |
| Cc1cc2cc(C(=O)c3cnn(-c4cnc(Oc5c(F)cccc5F)cc4C)c3N)[nH]c2cc1N1C(=O)NC2(CC2)C1=O [Example 5-1-366, 6-[2-[5-amino-1-[6-(2,6-difluorophenoxy)-4-methylpyridin-3-yl]pyrazole-4-carbonyl]-5-methyl-1H-indol-6-yl]-4,6-diazaspiro[2.4] heptane-5,7-dione] |  |  |  | 9.9 nM | 3.7 nM | 39 nM |
| Cc1cc(Oc2ccccc2F)ccc1-n1ncc(C(=O)c2cc3cc(OC(F)F)c(C4CCN(C(=O)CN)CC4)cc3[nH]2)c1N [Example 4-18-002, 2-amino-1-[4-[2-[5-amino-1-[4-(2-fluorophenoxy)-2-methylphenyl]pyrazole-4-carbonyl]-5-(difluoromethoxy)-1H-indol-6-yl]piperidin-1-yl]ethanone] | 15 nM | 5.9 nM | 29 nM |  |  |  |
| Cc1cc(Oc2c(F)cccc2F)ncc1-n1ncc(C(=O)c2cc3cc(OCC(F)F)c(N4C(=O)NC5(CCN(Cc6ccccc6)CC5)C4=O)cc3[nH]2)c1N [Example 5-1-351, 3-[2-[5-amino-1-[6-(2,6-difluorophenoxy)-4-methylpyridin-3-yl]pyrazole-4-carbonyl]-5-(2,2-difluoroethoxy)-1H-indol-6-yl]-8-benzyl-1,3,8-triazaspiro[4.5]decane-2,4-dione] |  |  |  | 2.4 nM | 0.65 nM | 6 nM |
| Cc1cc(-n2ncc(C(=O)c3cc4cc(C)c(N5C(=O)NC6(CC6)C5=O)cc4[nH]3)c2N)ccc1Oc1ccccc1F [Example 5-1-473, 6-[2-[5-amino-1-[4-(2-fluorophenoxy)-3-methylphenyl]pyrazole-4-carbonyl]-5-methyl-1H-indol-6-yl]-4,6-diazaspiro[2.4]heptane-5,7-dione] | 240 nM | 17 nM | 3500 nM |  |  |  |
| Cc1cc(Oc2c(F)cccc2F)ncc1-n1ncc(C(=O)c2cc3cc(OC4CCN(C5CC5)CC4)c(Br)cc3[nH]2)c1N [Example 5-1-224, [5-amino-1-[6-(2,6-difluorophenoxy)-4-methylpyridin-3-yl]pyrazol-4-yl]-[6-bromo-5-(1-cyclopropylpiperidin-4-yl)oxy-1H-indol-2-yl] methanone] |  |  |  | 6.3 nM | 0.57 nM | 17 nM |
| CC(=O)N1CCC(c2cc3[nH]c(C(=O)c4cnn(-c5cnc(Oc6c(F)cccc6F)cc5C)c4N)cc3cc2C)CC1 [Example 5-1-139, 1-[4-[2-[5-amino-1-[6-(2,6-difluorophenoxy)-4-methylpyridin-3-yl]pyrazole-4-carbonyl]-5-methyl-1H-indol-6-yl]piperidin-1-yl]ethanone] |  |  |  | 25 nM | 1.8 nM | 23 nM |
| Cc1cc(Oc2ccccc2F)ccc1-n1ncc(C(=O)c2cc3cc(F)c(NS(=O)(=O)N4CCOCC4)cc3[nH]2)c1N [Example 4-5-002, N-[2-[5-amino-1-[4-(2-fluorophenoxy)-2-methylphenyl]pyrazole-4-carbonyl]-5-fluoro-1H-indol-6-yl]morpholine-4-sulfonamide] | 23 nM | 0.76 nM | 49 nM |  |  |  |
| Cc1cc(Oc2ccccc2F)ccc1-n1ncc(C(=O)c2cc3cc(OCC(F)F)c(N4CCN(S(C)(=O)=O)CC4)cc3[nH]2)c1N [Example 4-23-005, [5-amino-1-[4-(2-fluorophenoxy)-2-methylphenyl]pyrazol-4-yl]-[5-(2,2-difluoroethoxy)-6-(4-methylsulfonylpiperazin-1-yl)-1H-indol-2-yl]methanone] | 8.2 nM | 1.7 nM | 16 nM |  |  |  |
| Cc1cc(Oc2ccccc2F)ccc1-n1ncc(C(=O)c2cc3cc(F)c(NS(=O)(=O)NCCO)cc3[nH]2)c1N [Example 4-6-002, [5-amino-1-[4-(2-fluorophenoxy)-2-methylphenyl]pyrazol-4-yl]-[5-fluoro-6-(2-hydroxyethylsulfamoylamino)-1H-indol-2-yl]methanone] | 4.6 nM | 0.35 nM | 16 nM |  |  |  |
| Cc1cc2cc(C(=O)c3cnn(-c4cnc(Oc5c(F)cccc5F)cc4C)c3N)[nH]c2cc1NS(=O)(=O)c1cccc(C#N)c1 [Example 5-1-555, N-[2-[5-amino-1-[6-(2,6-difluorophenoxy)-4-methylpyridin-3-yl]pyrazole-4-carbonyl]-5-methyl-1H-indol-6-yl]-3-cyanobenzenesulfonamide] | 150 nM | 14 nM | 1200 nM |  |  |  |
| Cc1cc(Oc2ccccc2F)ccc1-n1ncc(C(=O)c2cc3cc(F)c(N4C(=O)[C@@H]5C[C@@H](O)CN5C4=O)cc3[nH]2)c1N [Example 5-1-449, (6R,7aS)-2-[2-[5-amino-1-[4-(2-fluorophenoxy)-2-methylphenyl]pyrazole-4-carbonyl]-5-fluoro-1H-indol-6-yl]-6-hydroxy-5,6,7,7a-tetrahydropyrrolo[1,2-c]imidazole-1,3-dione] | 3.3 nM | 0.66 nM | 13 nM |  |  |  |
| Cc1cc(Oc2ccccc2F)cc(F)c1-n1ncc(C(=O)c2cc3cc(OC(F)F)c(N4CCCS4(=O)=O)cc3[nH]2)c1N [Example 4-25-003, [5-amino-1-[2-fluoro-4-(2-fluorophenoxy)-6-methylphenyl]pyrazol-4-yl]-[5-(difluoromethoxy)-6-(1,1-dioxo-1,2-thiazolidin-2-yl)-1H-indol-2-yl]methanone] | 19 nM | 3.9 nM | 130 nM |  |  |  |
| CC(=O)N1CCC(c2cc3[nH]c(C(=O)c4cnn(-c5cnc(Oc6c(F)cccc6F)cc5C)c4N)cc3cc2OC(F)F)CC1 [Example 4-17-011, 1-[4-[2-[5-amino-1-[6-(2,6-difluorophenoxy)-4-methylpyridin-3-yl]pyrazole-4-carbonyl]-5-(difluoromethoxy)-1H-indol-6-yl]piperidin-1-yl]ethanone] | 23 nM | 13 nM | 43 nM |  |  |  |
| Cc1cc(Oc2cccc(Cl)c2)ccc1-n1ncc(C(=O)c2cc3cc(F)c(C4CCN(C(C)C)CC4)cc3[nH]2)c1N [Example 4-2-013, [5-amino-1-[4-(3-chlorophenoxy)-2-methylphenyl]pyrazol-4-yl]-[5-fluoro-6-(1-propan-2-ylpiperidin-4-yl)-1H-indol-2-yl]methanone] | 9.7 nM | 1.1 nM | 49 nM |  |  |  |
| Cc1cc2cc(C(=O)c3cnn(-c4ccc(Oc5ccccc5F)cc4C)c3N)[nH]c2cc1N1C(=O)[C@@H]2C[C@@H](O)CN2C1=O [Example 5-1-459, (6R,7aS)-2-[2-[5-amino-1-[4-(2-fluorophenoxy)-2-methylphenyl]pyrazole-4-carbonyl]-5-methyl-1H-indol-6-yl]-6-hydroxy-5,6,7,7a-tetrahydropyrrolo[1,2-c]imidazole-1,3-dione] | 2.7 nM | 0.44 nM | 7.7 nM |  |  |  |
| Cc1cc(Oc2ccccc2F)ncc1-n1ncc(C(=O)c2cc3cc(OCC(F)F)c(N4CCC(N5CCOCC5)CC4)cc3[nH]2)c1N [Example 4-25-026, {5-amino-1-[6-(2-fluorophenoxy)-4-methylpyridin-3-yl]pyrazol-4-yl}-[5-(2,2-difluoroethoxy)-6-(4-morpholin-4-ylpiperidin-1-yl)-1H-indol-2-yl]methanone] | 1.6 nM | 0.92 nM | 12 nM |  |  |  |
